Like-named read-outs stand apart in the source and are kept apart here. Marks after values point to notes of the source that are not given here.
Tests used:
[1] = Trolox Equivalent Antioxidant Capacity assay (TEAC); conditions: n = 3; for TEAC IC50 (95% confidence limits): pure compounds tested at the concentration naturally present within the EO, n.r. = IC50 not reached
Procedure: (§1) The antioxidant and anti-inflammatory properties of S. oleosum and its major bioactive compounds were evaluated using different in vitro assays based on different mechanisms and reaction environments according to Smeriglio et al.. Results were expressed as the concentration required to inhibit 50% of the oxidative or inflammatory activity (IC50, µg/mL), with corresponding 95% confidence limits (C.L.) calculated using the Litchfield and Wilcoxon method with PHARM/PCS software (version 4; Consulting, Wynnewood, PA, USA).
To generate the 2,2′-azino-bis (3-ethylbenzothiazoline-6-sulfonic acid) (ABTS) radical cation solution, ABTS^+ (1.7 mM) was incubated with potassium persulfate (4.3 mM) in a 1:5 (v/v) ratio in the dark at room temperature (RT) for 12 h. The resulting solution was diluted to achieve an absorbance of 0.7 ± 0.02 at 734 nm. For the assay, 10 µL of either EO (ranging from 0.313 to 5 mg/mL), its main bioactive compounds (0.096–1.54 mg/mL, 0.084–1.34 mg/mL, 0.033–0.535 mg/mL, and 0.031–0.493 mg/mL for terpinolene, β-pinene, α-pinene, and γ-terpinene) or Trolox (0.625–10 µg/mL) was added to 200 µL of the ABTS solution and incubated at RT for 6 min. The absorbance at 734 nm was measured using a Multiskan™ GO UV-Vis microplate reader (Thermo Scientific, Waltham, MA, USA).

[2] = Ferric Reducing Antioxidant Power assay (FRAP); conditions: n = 3; for FRAP IC50 (95% confidence limits): pure compounds tested at the concentration naturally present within the EO, n.r. = IC50 not reached
Procedure: as §1
In this assay, 10 µL of EO (ranging from 0.313 to 5 mg/mL), its main bioactive compounds (0.096–1.54 mg/mL, 0.084–1.34 mg/mL, 0.033–0.535 mg/mL, and 0.031–0.493 mg/mL for terpinolene, β-pinene, α-pinene, and γ-terpinene) or Trolox (1.25–10 µg/mL) was mixed with 200 µL of FRAP reagent, pre-incubated at 37 °C. The reagent consisted of 10 mM 2,4,6-Tris (2-pyridyl)-s-triazine (TPTZ) in 40 mM HCl, 20 mM FeCl3·6H2O, and 300 mM acetate buffer (pH 3.6). The mixture was incubated for 4 min at RT in the dark before measuring absorbance at 593 nm with the same microplate reader used in Section TEAC Assay.

[3] = Oxygen Radical Absorbance Capacity assay (ORAC); conditions: n = 3; for ORAC IC50 (95% confidence limits): pure compounds tested at the concentration naturally present within the EO, n.r. = IC50 not reached
Procedure: as §1
ORAC activity was evaluated by combining 20 µL EO (ranging from 0.003 to 0.05 mg/mL), its main bioactive compounds (0.0010–0.0154 mg/mL, 0.0008–0.0134 mg/mL, 0.0003–0.0053 mg/mL, and […] for terpinolene, β-pinene, α-pinene, and γ-terpinene) or Trolox (0.25–2 µg/mL) with 120 µL of fluorescein solution (117 nM). After a 15-min pre-incubation at 37 °C, 60 µL of freshly prepared 2,2′-azobis (2-amidinopropane) dihydrochloride (AAPH) solution (40 mM) was added to initiate peroxyl radical formation. Fluorescence decay was monitored every 30 s for 90 min using excitation at 485 nm and emission at 520 nm on a FLUOstar Omega microplate reader (BMG LABTECH, Ortenberg, Germany).

[4] = β-Carotene Bleaching test (BCB); conditions: n = 3; for BCB IC50 (95% confidence limits): pure compounds tested at the concentration naturally present within the EO, n.r. = IC50 not reached
Procedure: as §1
In brief, 200 µL of EO (0.094–1.5 mg/mL), its main bioactive compounds (0.0289–0.4619 mg/mL, 0.0251–0.4019 mg/mL, 0.010–0.1604 mg/mL, and 0.0092–0.1479 mg/mL for terpinolene, β-pinene, α-pinene, and γ-terpinene), butylated hydroxytoluene (BHT, 1 mg/mL), or blank (0.1% DMSO) was added to 5 mL of β-carotene emulsion, prepared from 250 µL of β-carotene in ethyl acetate (1 mg/mL), 4 µL linoleic acid, and 40 µL Tween-40. An emulsion lacking β-carotene served as negative control. The mixtures were incubated at 50 °C for 2 h, and absorbance at 470 nm was measured at 20 min intervals using the same instrument as in Section TEAC Assay.

[5] = Iron-Chelating Activity assay (ICA); conditions: n = 3; for ICA IC50 (95% confidence limits): pure compounds tested at the concentration naturally present within the EO, n.r. = IC50 not reached
Procedure: (§2) The antioxidant and anti-inflammatory properties of S. oleosum and its major bioactive compounds were evaluated using different in vitro assays based on different mechanisms and reaction environments according to Smeriglio et al..
After 5 min at RT, 50 µL of ferrozine solution (5 mM) and deionized water were added to bring the total volume to 1.5 mL.

BSA = BSA (Bos taurus, UniProt P02769); experiment: Inhibition of protein denaturation (ADA); type: biochemical; conditions: for ADA IC50 (95% confidence limits): pure compounds tested at the concentration naturally present within the EO, n = 3, n.r. = IC50 not reached
trypsin = molecular target: T1, trypsin (Bos taurus, UniProt P00760); experiment: Inhibition of protease activity (PIA); type: biochemical; conditions: pure compounds tested at the concentration naturally present within the EO, n = 3, n.r. = IC50 not reached
T1 sequence (P00760 24-246): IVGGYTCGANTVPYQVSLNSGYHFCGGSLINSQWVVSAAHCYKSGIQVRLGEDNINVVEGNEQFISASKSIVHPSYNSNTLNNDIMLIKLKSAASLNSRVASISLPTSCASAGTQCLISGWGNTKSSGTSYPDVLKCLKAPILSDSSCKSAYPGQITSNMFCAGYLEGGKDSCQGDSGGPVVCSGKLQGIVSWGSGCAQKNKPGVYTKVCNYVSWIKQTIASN
Procedure: as §2
After a 20 min incubation at 37 °C, the reaction was halted with 400 µL of 2 M perchloric acid, followed by centrifugation at 3500 × g for 10 min.

[6] = molecular target: acetylcholinesterase (AChE) (Electrophorus electricus, UniProt O42275); conditions: pure compounds tested at the concentration naturally present in the EO, three experiments, n.r. = IC50 not reached
Procedure: (§3) The cholinesterase inhibitory activity was evaluated according to the method described by Zheng and co-workers.

[7] = molecular target: butyrylcholinesterase (BChE) (Equus caballus, UniProt P81908); experiment: Cholinesterase inhibition, BChE; type: biochemical; conditions: pure compounds tested at the concentration naturally present in the EO, three experiments, n.r. = IC50 not reached
Procedure: as §3

Chain of butyrylcholinesterase (BChE) (P81908 whole entry): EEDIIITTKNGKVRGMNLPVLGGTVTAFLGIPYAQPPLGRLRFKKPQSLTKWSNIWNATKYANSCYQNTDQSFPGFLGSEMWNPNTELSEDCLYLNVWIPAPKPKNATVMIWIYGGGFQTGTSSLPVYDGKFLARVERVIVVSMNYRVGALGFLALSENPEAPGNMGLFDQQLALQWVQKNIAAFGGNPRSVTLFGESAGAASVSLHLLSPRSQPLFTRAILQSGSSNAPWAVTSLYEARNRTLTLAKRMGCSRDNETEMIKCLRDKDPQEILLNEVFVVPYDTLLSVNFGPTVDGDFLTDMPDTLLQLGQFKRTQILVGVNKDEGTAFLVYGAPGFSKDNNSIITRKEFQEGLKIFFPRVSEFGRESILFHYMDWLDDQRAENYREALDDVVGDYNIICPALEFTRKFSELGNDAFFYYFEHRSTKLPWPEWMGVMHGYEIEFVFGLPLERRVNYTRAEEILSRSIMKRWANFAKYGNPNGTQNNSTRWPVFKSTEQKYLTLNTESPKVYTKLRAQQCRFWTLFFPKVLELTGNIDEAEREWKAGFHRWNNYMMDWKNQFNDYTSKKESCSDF
Chain of acetylcholinesterase (AChE) (O42275 24-633): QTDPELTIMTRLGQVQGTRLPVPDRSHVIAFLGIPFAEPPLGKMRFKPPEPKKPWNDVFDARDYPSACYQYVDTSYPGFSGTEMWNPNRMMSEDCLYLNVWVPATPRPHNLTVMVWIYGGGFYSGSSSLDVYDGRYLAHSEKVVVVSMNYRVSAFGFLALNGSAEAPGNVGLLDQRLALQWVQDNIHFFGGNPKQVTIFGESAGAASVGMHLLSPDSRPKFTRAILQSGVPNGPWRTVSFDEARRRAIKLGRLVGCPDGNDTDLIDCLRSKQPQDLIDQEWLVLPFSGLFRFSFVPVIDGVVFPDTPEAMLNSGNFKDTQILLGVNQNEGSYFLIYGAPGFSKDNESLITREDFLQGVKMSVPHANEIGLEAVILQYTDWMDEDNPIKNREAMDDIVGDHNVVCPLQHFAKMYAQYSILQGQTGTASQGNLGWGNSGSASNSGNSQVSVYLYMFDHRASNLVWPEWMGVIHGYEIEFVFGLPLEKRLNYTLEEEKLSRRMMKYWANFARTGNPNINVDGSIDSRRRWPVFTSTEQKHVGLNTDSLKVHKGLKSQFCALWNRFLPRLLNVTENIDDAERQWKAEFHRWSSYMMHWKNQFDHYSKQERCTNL
Chain of BSA (P02769 25-607): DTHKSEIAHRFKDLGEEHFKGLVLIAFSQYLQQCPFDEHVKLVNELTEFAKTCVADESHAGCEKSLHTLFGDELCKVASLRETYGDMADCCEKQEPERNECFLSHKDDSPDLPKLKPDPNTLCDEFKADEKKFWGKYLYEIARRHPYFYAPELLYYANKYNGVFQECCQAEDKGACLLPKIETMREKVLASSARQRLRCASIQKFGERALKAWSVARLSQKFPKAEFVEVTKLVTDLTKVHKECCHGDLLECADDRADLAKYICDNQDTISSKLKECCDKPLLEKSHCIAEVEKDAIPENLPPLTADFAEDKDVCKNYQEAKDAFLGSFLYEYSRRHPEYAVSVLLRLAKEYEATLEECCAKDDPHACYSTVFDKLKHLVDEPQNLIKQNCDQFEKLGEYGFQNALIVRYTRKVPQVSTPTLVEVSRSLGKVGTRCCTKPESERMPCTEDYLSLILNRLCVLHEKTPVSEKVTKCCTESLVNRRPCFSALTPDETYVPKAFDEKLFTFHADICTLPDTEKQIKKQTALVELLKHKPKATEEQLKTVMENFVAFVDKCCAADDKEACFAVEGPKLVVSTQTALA

Row | SMILES | TEAC IC50 (95% confidence limits) [1] | FRAP IC50 (95% confidence limits) [2] | ORAC IC50 (95% confidence limits) [3] | BCB IC50 (95% confidence limits) [4] | ICA IC50 (95% confidence limits) [5] | IC50 (BSA) [mM] | PIA IC50 (95% confidence limits) (trypsin) | BChE IC50 ± standard deviation [7] | also measured
1 | CC1=CCC(=C(C)C)CC1 [Terpinolene] | n.r. | n.r. | 0.01 (0.00–0.04) mg/mL | 0.21 (0.10–0.45) mg/mL | n.r. | 2.35 | did not reach the IC50 threshold |  | TEAC IC50 (95% confidence limits) ([1]; listed as terpinolene): neither compound reached 50% inhibition; FRAP IC50 (95% confidence limits) ([2]; listed as terpinolene): neither compound reached 50% inhibition; ICA IC50 (95% confidence limits) ([5]; listed as terpinolene): no appreciable activity
2 | O=C(O)CN(CCN(CC(=O)O)CC(=O)O)CC(=O)O [EDTA] |  |  |  |  |  |  |  |  | ICA IC50 (95% confidence limits), reference standard ([5]; RS EDTA): 5.72 (2.32–87.13) *** µg/mL
3 | Cc1c(C)c2c(c(C)c1O)CCC(C)(C(=O)O)O2 (centres unmarked) [trolox] |  |  |  |  |  |  |  |  | TEAC IC50 (95% confidence limits), reference standard ([1]; RS trolox): 3.78 (1.48–9.67) *** µg/mL; FRAP IC50 (95% confidence limits), reference standard ([2]; RS trolox): 3.72 (1.60–8.66) *** µg/mL; ORAC IC50 (95% confidence limits), reference standard ([3]; RS trolox): 0.68 (0.22–82.17) *** µg/mL
4 | CC1=CCC(C(C)C)=CC1 [γ-Terpinene] | n.r. | n.r. | n.r. | 0.02 (0.02–0.03) mg/mL | no appreciable activity and n.r. | 0.807 | n.r. | n.r. | PIA IC50 (95% confidence limits) (trypsin; listed as γ-terpinene): did not reach the IC50 threshold; AChE IC50 ± standard deviation [6]: n.r.; AChE IC50 ± standard deviation ([6]; listed as γ-terpinene): did not achieve 50% inhibition; BChE IC50 ± standard deviation ([7]; listed as γ-terpinene): failed to reach the IC50 threshold
5 | Cc1cc(C(C)(C)C)c(O)c(C(C)(C)C)c1 [BHT, butylated hydroxytoluene] |  |  |  |  |  |  |  |  | BCB IC50 (95% confidence limits), reference standard ([4]; RS BHT): 0.35 (0.17–80.58) *** µg/mL
6 | CC1=CCC2CC1C2(C)C (stereo not drawn) [α-Pinene] | n.r. ^b | n.r. | n.r. | inactive and n.r. |  |  |  | n.r. | ADA IC50 (95% confidence limits) (BSA): n.r.; ADA IC50 (95% confidence limits) (BSA; listed as α-pinene): did not reach 50% inhibition; BChE IC50 ± standard deviation ([7]; listed as α-pinene): failed to reach the IC50 threshold
7 | C=C1CCC2CC1C2(C)C (stereo not drawn) [β-Pinene] | neither compound reached 50% inhibition and n.r. | neither compound reached 50% inhibition and n.r. | n.r. | n.r. | 0.03 (0.01–0.13) mg/mL | 2.64 | did not reach the IC50 threshold and n.r. | n.r. | BCB IC50 (95% confidence limits) ([4]; listed as β-pinene): inactive; AChE IC50 ± standard deviation [6]: n.r.; AChE IC50 ± standard deviation ([6]; listed as β-pinene): did not achieve 50% inhibition; BChE IC50 ± standard deviation ([7]; listed as β-pinene): failed to reach the IC50 threshold

From article PMC12389591, “Syzygium oleosum (F.Muell.) B.Hyland (Myrtaceae), an Unexplored Australian Species: Anatomical and Micromorphological Study of Leafy Twigs, and Characterization and Biological Activity of Their Essential Oil” (Plants, 2025)
